Assay type in all cases: functional
The subject of one experiment is Pseudomonas aeruginosa. As to the kind of experiment: Antimicrobial activity against Pseudomonas aeruginosa ATCC 27853 assessed as zone of inhibition after 24 hrs by agar well-diffusion method.
The next experiment concerns Escherichia coli. The experiment is described as follows: Antimicrobial activity against Escherichia coli ATCC 25922 assessed as zone of inhibition after 24 hrs by agar well-diffusion method.
The subject of another experiment is Staphylococcus aureus. As to the kind of experiment: Antimicrobial activity against Staphylococcus aureus ATCC 29213 assessed as zone of inhibition after 24 hrs by agar well-diffusion method.

Consider ten molecules from ChEMBL document CHEMBL2311410, “Facile regioselective synthesis of novel bioactive thiazolyl-pyrazoline derivatives via a three-component reaction and their antimicrobial activity” (2013).

For `c1ccc(-c2csc(N3N=C4c5ccccc5CCC4C3c3cccs3)n2)cc1` (configuration not stated), the “inhibition zone (IZ)” value with Pseudomonas aeruginosa is 16 mm; in the experiment with Escherichia coli, 8 mm.
Taken in the same sequence, the figures for `Clc1ccc(C2C3CCc4ccccc4C3=NN2c2nc(-c3ccccc3)cs2)cc1` (configuration not stated) were 9 mm and 7 mm.
Taken in the same sequence, the figures for `COc1ccc(C2CC(c3ccc(C)cc3)=NN2c2nc(-c3ccccc3)cs2)cc1` (configuration not stated) were 19 mm and 7 mm.
Turning to `COc1ccc(C2=NN(c3nc(-c4ccccc4)cs3)C(c3ccc(C)cc3)C2)cc1` (configuration not stated), the “inhibition zone (IZ)” value in the experiment with Staphylococcus aureus amounted to 7 mm; in the experiment on Pseudomonas aeruginosa, 17 mm.
Turning to GENTAMICIN, the figures for the inhibition zone (IZ) in the experiment on Staphylococcus aureus, with Pseudomonas aeruginosa and in the experiment on Escherichia coli were 23 mm, 21 mm and 22 mm, respectively.
In the case of `COc1ccc(C2CC(c3ccccc3)=NN2c2nc(-c3ccccc3)cs2)cc1` (configuration not stated), the “inhibition zone (IZ)” value in the experiment with Staphylococcus aureus was 6 mm; in the experiment on Pseudomonas aeruginosa, 7 mm.
Taken in the same sequence, the figures for `c1ccc(C2=NN(c3nc(-c4ccccc4)cs3)C(c3cccs3)C2)cc1` (configuration not stated) were 9 mm and 19 mm.
For the molecule `COc1ccc(C2=NN(c3nc(-c4ccccc4)cs3)C(c3ccc(OC)cc3)C2)cc1` (configuration not stated), the “inhibition zone (IZ)” value in the experiment with Pseudomonas aeruginosa amounted to 18 mm; with Escherichia coli it was 8 mm.
Take `Cc1ccc(C2=NN(c3nc(-c4ccccc4)cs3)C(c3ccc(C)cc3)C2)cc1` (configuration not stated): the “inhibition zone (IZ)” value in the experiment on Staphylococcus aureus stood at 7 mm; in the experiment with Pseudomonas aeruginosa it was 16 mm; in the experiment on Escherichia coli it was 7 mm.
In the case of `COc1ccc(C2C3CCc4ccccc4C3=NN2c2nc(-c3ccccc3)cs2)cc1` (configuration not stated), the “inhibition zone (IZ)” value in the experiment with Staphylococcus aureus was 8 mm; with Pseudomonas aeruginosa, 9 mm.
